Data: PMC9824296, “Functional Characterization of Three Diterpene Synthases Responsible for Tetracyclic Diterpene Biosynthesis in Scoparia dulcis” (Plants, 2022)

Key:
SdCPS2 = molecular target: T1, SdCPS2 (Scoparia dulcis, UniProt A0A1U8XUA9); assay: GC-MS of n-hexane extract of recombinant E. coli cultures; type: cell-based; details: GGPP supplied by co-expressed SdGGPPS; 16 °C; product seen as dephosphorylated alcohol
T1 construct: gene CPS2; full ORF 2412 bp, 804 residues
T1 sequence (A0A1U8XUA9 81-804): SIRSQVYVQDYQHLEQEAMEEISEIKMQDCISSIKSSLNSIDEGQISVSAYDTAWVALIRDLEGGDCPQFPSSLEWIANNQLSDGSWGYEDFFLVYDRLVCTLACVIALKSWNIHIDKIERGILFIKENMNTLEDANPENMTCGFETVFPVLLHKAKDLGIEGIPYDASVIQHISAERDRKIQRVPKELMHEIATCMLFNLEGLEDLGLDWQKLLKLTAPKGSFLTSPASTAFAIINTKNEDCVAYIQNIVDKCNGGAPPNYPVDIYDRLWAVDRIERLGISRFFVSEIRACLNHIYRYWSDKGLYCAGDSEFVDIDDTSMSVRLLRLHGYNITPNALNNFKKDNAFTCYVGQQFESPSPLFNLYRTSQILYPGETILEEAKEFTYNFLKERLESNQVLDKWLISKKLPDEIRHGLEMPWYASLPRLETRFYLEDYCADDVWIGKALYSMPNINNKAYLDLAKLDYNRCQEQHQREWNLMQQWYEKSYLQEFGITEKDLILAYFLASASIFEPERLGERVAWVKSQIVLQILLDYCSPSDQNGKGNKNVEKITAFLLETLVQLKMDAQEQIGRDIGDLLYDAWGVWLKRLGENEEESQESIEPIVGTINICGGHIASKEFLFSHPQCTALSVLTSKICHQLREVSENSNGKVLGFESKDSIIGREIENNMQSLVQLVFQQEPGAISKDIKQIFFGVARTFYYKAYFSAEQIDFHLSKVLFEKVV

OsKSL4 = molecular target: T2, OsKSL4 (Oryza sativa, UniProt Q0JEZ8); assay: as above; type: cell-based; details: reference enzyme; syn-CPP supplied by co-expressed SdCPS2 or OsCPS4 with SdGGPPS; 16 °C; product 7
T2 construct: gene KSL4; in pET28b (NcoI/NotI), expressed in E. coli C41
T2 sequence (Q0JEZ8 57-842): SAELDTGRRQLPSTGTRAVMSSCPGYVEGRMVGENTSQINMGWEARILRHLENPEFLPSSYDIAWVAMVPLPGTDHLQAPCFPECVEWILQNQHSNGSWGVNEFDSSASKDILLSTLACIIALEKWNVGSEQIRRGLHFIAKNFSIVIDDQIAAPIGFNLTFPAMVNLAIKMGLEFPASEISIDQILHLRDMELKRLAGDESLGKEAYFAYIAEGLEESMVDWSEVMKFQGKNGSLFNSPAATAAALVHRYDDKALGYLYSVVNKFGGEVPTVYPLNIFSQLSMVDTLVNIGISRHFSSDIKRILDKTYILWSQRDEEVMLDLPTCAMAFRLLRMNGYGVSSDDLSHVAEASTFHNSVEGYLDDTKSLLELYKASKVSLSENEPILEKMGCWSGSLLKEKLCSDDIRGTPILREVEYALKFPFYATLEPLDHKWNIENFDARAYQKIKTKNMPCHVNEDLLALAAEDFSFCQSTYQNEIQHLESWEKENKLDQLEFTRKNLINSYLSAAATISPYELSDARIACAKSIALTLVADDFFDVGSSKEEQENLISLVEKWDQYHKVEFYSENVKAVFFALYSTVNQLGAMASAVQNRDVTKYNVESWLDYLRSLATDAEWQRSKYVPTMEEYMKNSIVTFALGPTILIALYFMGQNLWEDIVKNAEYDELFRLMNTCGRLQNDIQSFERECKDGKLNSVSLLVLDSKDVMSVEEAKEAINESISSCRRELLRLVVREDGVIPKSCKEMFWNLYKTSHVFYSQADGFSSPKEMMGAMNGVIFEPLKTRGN

SMILES: CC(C)=CCC/C(C)=C/CC/C(C)=C/CC/C(C)=C/COP(=O)(O)OP(=O)(O)O [compound 2, geranylgeranyl diphosphate]
- GC-MS of n-hexane extract of recombinant E. coli cultures (SdCPS2): The SdCPS2 catalyzed a cyclization reaction from GGPP to syn-CPP

SMILES: C=C1CC[C@H]2C(C)(C)CCC[C@]2(C)[C@@H]1CC/C(C)=C/COP(=O)(O)OP(=O)(O)O [compound 3, syn-copalyl diphosphate]
- GC-MS of n-hexane extract of recombinant E. coli cultures (OsKSL4): SdCPS2 could be cyclized by OsKSL4, whose substrate is a syn-copalyl diphosphate
